Results: PubChem BioAssay AID2483 (Sanford-Burnham Center for Chemical Genomics, 2010)
pIC50: −log10 of the molar value. Active and inactive are the calls of the source. How the calls were made is not given here.

Each compound was assayed on TNFa-induced NF-kB reporter inhibition, human cells (assay: analog potency on TNFa NF-kB signaling – cell-based, set 2, SAR follow-up (AID 2483)).

Row | Structure (SMILES) | IC50 | pIC50
1 | Cc1ccc(S(=O)(=O)n2c(N)nc3ccccc32)cc1 | > 20 µM (inactive) | –
2 | C/C(Cl)=C\Cn1c(NCCc2ccccc2)nc2c1c(=O)n(C)c(=O)n2C | – | 5.28
3 | CCCn1c(SCC(=O)Nc2nc3c(s2)CCCC3)nc2c1c(=O)n(C)c(=O)n2C | – | 5.48
4 | Cn1c(=O)[nH]c(=O)c2c1nc([N+](=O)[O-])n2Cc1ccccc1 | – | 5.88
5 | CCCCn1c(CN2CCN(c3cccc(Cl)c3)CC2)nc2c1c(=O)n(C)c(=O)n2C | – | 5.24
6 | O=C(Nc1nc2ccccc2n1Cc1ccc(Cl)cc1)c1ccco1 | > 20 µM (inactive) | –
7 | C/C=C/Cn1c(SCc2ccc(Cl)cc2)nc2c1c(=O)[nH]c(=O)n2C | > 20 µM (inactive) | –
8 | CC(C)Sc1nc2c(c(=O)[nH]c(=O)n2C)n1Cc1ccccc1 | > 20 µM (inactive) | –
9 | CCCCn1c(SCC(=O)Nc2nnc(CC)s2)nc2c1c(=O)n(C)c(=O)n2C | – | 4.88
10 | CCC(=O)Nc1nc2ccccc2n1Cc1ccccc1Cl | – | 4.77

The next lines start with the values.

Row | IC50 | pIC50 | Structure (SMILES)
11 | > 20 µM (inactive) | – | CC(C)n1c(SCCCc2ccccc2)nc2c1c(=O)[nH]c(=O)n2C
12 | – | 4.77 | C=CCn1c(SCCCc2ccccc2)nc2c1c(=O)[nH]c(=O)n2C
13 | > 20 µM (inactive) | – | COCCn1c(SCCCc2ccccc2)nc2c1c(=O)[nH]c(=O)n2C
14 | > 20 µM (inactive) | – | CCCn1c(SCCc2ccccc2)nc2c1c(=O)[nH]c(=O)n2C
15 | > 20 µM (inactive) | – | CCCCn1c(SCC(=O)c2ccccc2)nc2c1c(=O)[nH]c(=O)n2C
16 | – | 5.07 | C/C=C/Cn1c(SCCCc2ccccc2)nc2c1c(=O)[nH]c(=O)n2C
17 | > 20 µM (inactive) | – | C/C=C/Cn1c(SCc2ccccc2)nc2c1c(=O)[nH]c(=O)n2C
18 | > 20 µM (inactive) | – | CCCCCn1c(SCCc2ccccc2)nc2c1c(=O)[nH]c(=O)n2C
